In US20260317272A1, “USE OF STROBILURIN TYPE COMPOUNDS FOR COMBATING PHYTOPATHOGENIC FUNGI CONTAINING AN AMINO ACID SUBSTITION F129L IN THE MITOCHONDRIAL CYTOCHROME B PROTEIN CONFERRING RESISTANCE TO QO INHIBITORS XVI” (priority 2023, published 2026):

How the values were obtained:
Puccinia sorghi = assay: Use Example 8: protective control of corn rust on corn (PUCCSO P1); assay type: in vivo; settings: 16 ppm, untreated 80%
Description: (§1) The compound was dissolved in a mixture of acetone and/or dimethylsulfoxide and the wetting agent/emulsifier Wettol, which is based on ethoxylated alkylphenoles, in a ratio (volume) solvent-emulsifier of 99 to 1 to give a total volume of 5 ml. Subsequently, water was added to total volume of 100 ml. This stock solution was then diluted with the described solvent-emulsifier-water mixture to the final concentration given in the tables below.
Use Example 8. Protective Control of Corn Rust on Corn Caused by Puccinia sorghi (PUCCSO P1)
The primary leaves of potted corn seedling were sprayed to run-off with previously described spray solution, containing the concentration of active ingredient or their mixture as described below. One day later the plants were dusted with before harvested spores of Puccinia sorghi. To ensure the success of the artificial inoculation, the plants were transferred to a humid chamber without light and a relative humidity of […] and 20 to 24° C. and were there incubated for about fourteen days. The extent of fungal attack on the primary leaves was visually assessed as % diseased leaf area.

Sclerotinia sclerotiorum = assay: Use Example 13: preventative fungicidal control of white mold on soy beans (SCLESC P1 mycelium); assay type: in vivo; settings: 63 ppm, untreated 85%
Description: as §1
Use Example 13. Preventative Fungicidal Control of White Mold on Soy Beans Caused by Sclerotinia sclerotiorum (SCLESC P1 Mycelium)
Young seedlings of soy beans were grown in pots. These plants were sprayed to run-off with previously described spray solution, containing the concentration of active ingredient or mixture mentioned in the table below. The next day the treated plants were inoculated with a biomalt suspension, containing the mycelium of Sclerotinia sclerotiorum. Then the trial plants were cultivated for 6 days in a greenhouse chamber at 23° C. and a relative humidity between 80 and 85%. The extent of fungal attack on the leaves was visually assessed as % diseased leaf area.

Structure (SMILES) | Diseased leaf area (%) (Puccinia sorghi) | Diseased leaf area (%) (Sclerotinia sclerotiorum)
CNC(=O)/C(=N/OC)c1cccc(C)c1CO/N=C(\COC)c1ccc(F)c(F)c1 [Compound 5, (2E)-2-[2-[[(Z)-[1-(3,4-difluorophenyl)-2-methoxy-ethylidene]amino]oxymethyl]-3-methylphenyl]-2-methoxyimino-N-methyl-acetamide] | 0% | 
CNC(=O)/C(=N/OC)c1cccc(C)c1CO/N=C(\COC)c1c(F)cc(OC)cc1F [Compound 7, (2E)-2-[2-[[(Z)-[1-(2,6-difluoro-4-methoxy-phenyl)-2-methoxy-ethylidene]amino]oxymethyl]-3-methyl-phenyl]-2-methoxyimino-N-methyl-acetamide] | 12% | 4%
